According to patent US6784201B2, “Benzothiepines having activity as inhibitors of ileal bile acid transport and taurocholate uptake” (G.D. Searle & Company, priority 1994, dated 2004):
Like-named read-outs stand apart in the source and are kept apart here.

Target: T1, human IBAT (Homo sapiens, UniProt Q12908)
T1 construct: expressed in transfected cells; host or cells: Baby hamster kidney (BHK) cells, clone H14
T1 sequence (Q12908 1-348): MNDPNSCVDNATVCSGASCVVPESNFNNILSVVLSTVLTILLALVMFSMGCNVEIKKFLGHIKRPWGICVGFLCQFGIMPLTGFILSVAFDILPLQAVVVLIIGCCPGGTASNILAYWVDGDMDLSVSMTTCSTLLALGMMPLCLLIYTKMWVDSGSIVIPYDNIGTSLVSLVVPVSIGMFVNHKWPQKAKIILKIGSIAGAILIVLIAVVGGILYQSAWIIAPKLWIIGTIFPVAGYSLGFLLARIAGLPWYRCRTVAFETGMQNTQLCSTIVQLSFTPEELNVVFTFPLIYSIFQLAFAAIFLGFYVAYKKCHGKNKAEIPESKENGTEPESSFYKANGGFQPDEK
Experiment: In vitro assay of IBAT-mediated uptake of [14C]-taurocholate (TC) in H14 cells
Format: cell-based
Conditions: for inhibition at 100 µM: read-out: In vitro % Inhibition of TC Uptake @ 100 uM
Method in brief: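 BHK cells stably expressing human IBAT (H14) were incubated 2 h at 37° C with compound and 3 μM final [14C]-taurocholate in DMEM (4.5 g/L glucose) plus 0.2% fatty acid-free BSA. After cold PBS washes, cell-associated radioactivity was measured by scintillation counting.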

IC50 (read-out: Human TC IC50)	Compound	other results
1600 nM	CCCCC1(CC)CS(=O)(=O)c2ccc(N)cc2C(c2ccc(OCCOCCOCC[N+](C)(C)C)cc2)C1O (stereo not shown) [Example 296]	–
2 nM	CCCCC1(CCCC)CS(=O)(=O)c2ccc(N(C)C)cc2C(c2cccc(OCCOCCOCC[n+]3ccc(C(C)C)cc3)c2)C1O (stereo not shown) [Example 1027]	–
54 nM	CCCCC1(CCCC)CS(=O)(=O)c2ccc(N)cc2[C@@H](c2ccccc2)[C@H]1O [Example 290]	–
1670 nM	CCCCCCOc1ccc2c(c1)C(c1ccccc1)C(O)C(CC)(CCCC)CS2(=O)=O (stereo not shown) [Example 1315]	–
21 nM	CCCCC1(CC)CS(=O)(=O)c2ccc(C)cc2C(c2ccc(F)cc2)C1O (single isomer, unassigned) [Example 282]	–
3 nM	CCCCC1(CCCC)CS(=O)(=O)c2ccc(N(C)C)cc2C(c2ccc(OCCOCCOCC[N+](CC)(CC)CC)cc2)C1O (stereo not shown) [Example 1048]	–
–	CCCC[C@]1(CC)CS(=O)(=O)c2ccc(N)cc2[C@H](c2ccccc2)[C@@H]1O [Example 63, (3α,4α,5α) 3-Butyl-3ethyl-4-hydroxy-7-amino-5-phenyl-2,3,4,5-tetrahydrobenzothiepine-1,1-dioxide]	inhibition at 6 µM (6 μM): 90%
–	CCCC[C@]1(CC)CSc2ccccc2[C@@H](c2ccccc2)C1=O (relative stereo) [Example 4b, trans-3-Butyl-3-ethyl-5-phenyl-2,3-dihydro-benzothiepin-(5H)4-one]	inhibition at 100 µM (100 uM): 9%
3 nM	CCCCC1(CCCC)CS(=O)(=O)c2ccc(N(C)C)cc2C(c2ccc(OCCC[n+]3ccc(N(C)C)cc3)c(F)c2)C1O (stereo not shown) [Example 1053]	–
–	CCCC[C@]1(CC)CS(=O)(=O)c2ccccc2[C@@]2(c3ccccc3)O[C@@H]12 [Example 8a, (1aα,2β,8bα) 2-Butyl-2-ethyl-8b-phenyl-1α,2,3,8b-tetrahydro-benzothiepino[4,5-b]oxirene-4,4-dioxide]	inhibition at 100 µM (100 uM): 41%
250 nM	CCCCC1(CCCC)CS(=O)(=O)c2c(NC)cccc2C(c2ccc(F)cc2)C1O (stereo not shown) [Example 1305]	–
5.5 nM	CCCCC1(CC)CS(=O)(=O)c2ccc(N(C)C)cc2C(c2ccc3c(c2)OCO3)C1O (stereo not shown) [Example 1088]	–
300 nM	CCCCC1(CCCC)CS(=O)(=O)c2c(F)cc(F)cc2C(c2ccccc2)C1O (stereo not shown) [Example 1186]	–
600 nM	CCCCC1(CC)CS(=O)(=O)c2ccc(NS(C)(=O)=O)cc2C(c2ccccc2)C1O (stereo not shown) [Example 105]	–
37 nM	CCCCC1(CCCC)CS(=O)(=O)c2ccc(NC)cc2C(c2ccc(F)cc2)C1O (stereo not shown) [Example 1153]	–
11 nM	CCCCC1(CCCC)CS(=O)(=O)c2c(NCC)cccc2C(c2ccc(F)cc2)C1O (stereo not shown) [Example 1284]	–
2 nM	CCCCC1(CCCC)CS(=O)(=O)c2ccc(N(C)C)cc2C(c2cccc(OCCOCCOCC[N+](C)(C)CCN(C)C(=O)c3ccccc3)c2)C1O (stereo not shown) [Example 1018]	–
4 nM	CCCCC1(CCCC)CS(=O)(=O)c2ccc(N(C)C)cc2C(c2ccc(OCCOCC[n+]3ccn(CC)c3)c(F)c2)C1O (stereo not shown) [Example 1070]	–
2 nM	CCCCC1(CCCC)CS(=O)(=O)c2ccc(N(C)C)cc2C(c2cccc(OCCOCCOCC[N+](CC)(CC)CCO)c2)C1O (stereo not shown) [Example 1022]	–
8000 nM	CCCCC1(CC)CS(=O)(=O)c2ccc(NC(=O)OCc3ccccc3)cc2C(c2ccc(OC)cc2)C1O (single isomer, unassigned) [Example 115]	–
21 nM	CCCCC1(CCCC)CS(=O)(=O)c2c(NN(C)C)cccc2C(c2ccc(F)cc2)C1O (stereo not shown) [Example 1137]	–
2 nM	CCCCC1(CCCC)CS(=O)(=O)c2ccc(N(C)C)cc2C(c2ccc(OCCOCC[N+]3(C)CCCC3)c(F)c2)C1O (stereo not shown) [Example 1015]	–
4 nM	CCCCC1(CCCC)CS(=O)(=O)c2ccc(N(C)C)cc2C(c2cccc(OCCOCCOCC[N+](CC)(CC)CC#N)c2)C1O (stereo not shown) [Example 1371]	–
2500 nM	CCCC[C@@]1(CC)CS(=O)(=O)c2ccc(N)cc2[C@@H](c2ccc(O)cc2)[C@H]1O [Example 111]	–
39 nM	CCCCC1(CCCC)CS(=O)(=O)c2ccc(SC)cc2C(c2ccc(F)cc2)C1O (stereo not shown) [Example 1156]	–
–	CCCCC1(CC)CS(=O)(=O)c2ccccc2C(Sc2ccccc2)C1O (single isomer, unassigned) [Example 21c, 3-Butyl-3-ethyl-4-hydroxy-5-phenylthio-2,3,4,5-tetrahydro-benzothiepine-1,1-dioxide]	In vitro % Inhibition of TC Uptake @ 100 uM (100 uM): 52%
120 nM	CCCCC1(CC)CS(=O)(=O)c2ccc(N(C)C)cc2C(c2cccc(C)c2)C1O (single isomer, unassigned) [Example 1225]	–
180 nM	CCCCC1(CC)CS(=O)(=O)c2ccc(F)cc2C(c2ccc(F)cc2)C1O (single isomer, unassigned) [Example 274]	–

IC50 (read-out: Human TC IC50)	Compound	other results
5 nM	CCCCC1(CCCC)CS(=O)(=O)c2ccc(N(C)C)cc2C(c2cccc(OCCOCCOCC[N+](CC)(CC)CCN(C)S(=O)(=O)c3ccccc3)c2)C1O (stereo not shown) [Example 1080]	–
18 nM	CCCCC1(CCCC)CS(=O)(=O)c2ccc(N(C)C)cc2C(c2cccc(OCCOCCOCC[N+](C)(C)CCC(C)CCN(C)C)c2)C1O (stereo not shown) [Example 1298]	–
11 nM	CCCCC1(CCCC)CS(=O)(=O)c2ccc(N(C)C)cc2C(c2cccc(OCCOCCOCC[N+]3(c4ccccc4)CCCCC3)c2)C1O (stereo not shown) [Example 1294]	–
47 nM	CCCCC1(CCCC)CS(=O)(=O)c2ccc(N(C)C)cc2C(c2cccc(OCCOCCOCC[n+]3cccc(CC(=O)O)c3)c2)C1O (stereo not shown) [Example 1272]	–
3 nM	CCCCC1(CCCC)CS(=O)(=O)c2ccc(N(C)C)cc2C(c2cccc(OCCOCCOCC[n+]3ccc4c(c3)CCCCC4)c2)C1O (stereo not shown) [Example 1056]	–
–	CC[C@@H]1CS(=O)(=O)c2ccccc2[C@H](c2ccccc2)[C@H]1O [Example 14a, (3α,4β,5α)-3-Ethyl-4-hydroxy-5-phenyl-2,3,4,5-tetrahydro-benzothiepine-1,1-dioxide]	inhibition at 100 µM (100 uM): 13%
1200 nM	CCCCC1(CCCC)CS(=O)(=O)c2c(cccc2N(C)C)C(c2ccsc2)C1O (single isomer, unassigned) [Example 1232]	–
6100 nM	CCCCC1(CC)CS(=O)(=O)c2cc(OCC)ccc2C(c2ccccc2)C1O (stereo not shown) [Example 1313]	–
23 nM	CCCCC1(CCCC)CS(=O)(=O)c2ccc(N(C)CC)cc2C(c2ccc(F)cc2)C1O (stereo not shown) [Example 1141]	–
190 nM	CCCCC1(CC)CS(=O)(=O)c2ccc(N)cc2C(c2ccc(OC)cc2)C1O (stereo not shown) [Example 114]	–
–	CCCC[C@]1(CC)CS(=O)(=O)c2ccccc2[C@H](c2ccccc2)C1=O (relative stereo) [Example 5a, cis-3-Butyl-3-ethyl-5-phenyl-2,3-dihydrobenzothiepin-(5H) 4-one-1,1-dioxide]	inhibition at 100 µM (100 uM): 34%
2 nM	CCCCC1(CCCC)CS(=O)(=O)c2ccc(N(C)C)cc2C(c2ccc(OCc3cccc(C[N+](CC)(CC)CC)n3)c(F)c2)C1O (stereo not shown) [Example 1020]	–
10 nM	CCCCC1(CC)CS(=O)(=O)c2ccc(N(C)C)cc2C(c2cccc(OCCOCCOCC[N+](C)(C)C)c2)C1O (stereo not shown) [Example 1117]	–
18 nM	CCCCC1(CCCC)CS(=O)(=O)c2ccc(N(C)C)cc2C(c2ccc(OCCOCCN(C)CC(=O)O)c(F)c2)C1O (stereo not shown) [Example 1277]	–
14 nM	CCCCC1(CCCC)CS(=O)(=O)c2ccc(N(C)C)cc2C(c2cccc(OCCOCCOCC[n+]3ccn(Cc4ccccc4)c3)c2)C1O (stereo not shown) [Example 1359]	–
–	CCCCC1(CC)CS(=O)(=O)c2ccc(N(C)C)cc2C(c2ccccc2)C1O (stereo not shown) [Example 1285]	IC50 (Human TC IC50): 27 nM
3 nM	CCCCC1(CCCC)CS(=O)(=O)c2ccc(N(C)C)cc2C(c2cccc(OCCOCCOCC[N+]3(C)CCN(P(C)(=O)c4ccccc4)CC3)c2)C1O (stereo not shown) [Example 1050]	–
11 nM	CCCCC1(CCCC)CS(=O)(=O)c2ccc(N(C)C)cc2C(c2cccc(OC)c2)C1O (stereo not shown) [Example 1124]	–
30 nM	CCCCC1(CC)CS(=O)(=O)c2ccc(SC)cc2C(c2cccc(OC)c2)C1O (single isomer, unassigned) [Example 143]	–
40 nM	CCCCC1(CC)CS(=O)(=O)c2ccc(N(C)C)cc2C(c2ccc(OS(=O)(=O)CC34CCC(CC3=O)C4(C)C)c(F)c2)C1O (stereo not shown) [Example 1308]	–
9.3 nM	CCCCC1(CC)CS(=O)(=O)c2ccc(N(C)C)cc2C(c2cccc(C)c2)C1O (single isomer, unassigned) [Example 1116]	–
5 nM	CCCCC1(CCCC)CS(=O)(=O)c2ccc(N(C)C)cc2C(c2cccc(OCC[N+](CC)(CC)CC)c2)C1O (stereo not shown) [Example 1087]	–
10 nM	CCCCC1(CC)CS(=O)(=O)c2ccc(N(C)C)cc2C(c2ccc(O)c(F)c2)C1O (stereo not shown) [Example 1118]	–
63 nM	CCCCC1(CCCC)CS(=O)(=O)c2ccc(N(C)C)cc2C(c2ccccc2)C1O (stereo not shown) [Example 1162]	–
26 nM	CCCCC1(CCCC)CS(=O)(=O)c2ccc(N(C)C)cc2C(c2ccc(OCCCCBr)c(F)c2)C1O (stereo not shown) [Example 1270]	–
200 nM	CCCCC1(CC)CS(=O)(=O)c2ccc(OC)cc2C(c2cccc(C(F)(F)F)c2)C1O (single isomer, unassigned) [Example 264]	–
8 nM	CCCCC1(CCCC)CS(=O)(=O)c2ccc(N(C)C)cc2C(c2cccc(OCCOCCOCC[P+](CC)(CC)CC)c2)C1O (stereo not shown) [Example 1358]	–
